Columns and labels:
[1] = test system: fruit flies that attack the persimmon trees; assay: Spraying of persimmon trees with allicin, repellent effect on fruit flies; type: in vivo, fruit fly; details: trees sprayed with water solution 0.1-0.2 g/l (0.5-1 mM) every second week, 12 weeks, 6 sessions, FIG. 2
Experimental: (§1) Persimmon trees (Oriental persimmon of the type “Fuyu”, 2.5-3 meters tall) in the Hasharon region, Israel, were sprayed with a water solution of allicin (0.1-0.2 g/l, 0.01-0.02% or 0.5-1 mM) every second week, during a 12-week period, for a total of 6 sessions. Spraying with allicin was started 2-3 weeks after persimmon fruit setting, when the fruits reached 1-2 cm in diameter. The spraying was performed in such a way as to wet the leaves and the fruits completely. No other insecticides or other treatments were used in parallel or at any point of the experiment. FIG. 2 is a photograph showing persimmon fruits from trees treated with allicin (left) and from untreated trees (right).

[2] = test system: hatched larvae of fruit fly; assay: Lethality of hatched larvae on egg-laying plates with allicin; type: in vivo, Drosophila Melanogaster; details: allicin stock 1-2 mg/ml added to egg-laying plates, about 200 eggs per plate
Experimental: In an additional experiment, lethality of 80-90% of the hatched larvae produced in the second phase of the fly life cycle was caused by addition of allicin (stock 1-2 mg/ml) to egg-laying plates containing about 200 eggs per plate (not shown).

[3] = test system: Fruit flies, Drosophila Melanogaster; assay: Egg laying of fruit flies on plates containing allicin (repellent activity); type: in vivo
Experimental: Fruit flies, Drosophila Melanogaster, were grown in a plastic container and allowed to lay eggs in laying bottles (6×4 cm) containing allicin (100 μl) in various concentrations (0-12 mM). Allicin was introduced to the egg-laying sites on a ring of Whatman (3 mm) paper placed at the periphery of the egg laying plate which was placed at the bottom of the bottle. A yeast paste (fly food) was applied in the middle of the plate. Female fruit flies (N=100) were introduced into the laying bottle and were allowed to lay eggs for 16 hours. At the end of the 16 hours, the number of eggs was counted in each plate. The total number of eggs laid by the flies was 1440. The repellent effect of allicin on the fruit fly was determined by measuring the number of laid eggs during the continuous exposure of the flies to the various concentrations of allicin. The results are shown in FIG. 1a as a percentage of laid eggs in the presence of each concentration of allicin in comparison with the number of eggs laid by flies in the absence of allicin (first column, left—100%). […] At the end of the 8 hours, the number of eggs was counted in each plate. […] The repellent effect of allicin on the fruit fly was determined by measuring the number of laid eggs in allicin-free plates for 8 hours after the 16-hour exposure of the flies to the various concentrations of allicin. […]

[4] = test system: ants; assay: Repellent effect of allicin on ants; type: in vivo
Experimental: Treatment of the locus of an ant colony with a water solution of allicin (1 mg/ml) prevented the ants from reentering the place for at least 3 days.

[5] = test system: Persimmon trees (Oriental persimmon of the type "Fuyu"); assay: Damage to leaves of persimmon trees after spraying with allicin; type: in vivo; details: water solution 0.1-0.2 g/l, 6 sprayings over 12 weeks
Experimental: as §1

With `C=CCS[S+]([O-])CC=C` (stereo not shown) [allicin, thio-2-propene-1-sulfinic acid S-allyl ester] the “repellent effect on fruit flies, appearance of persimmon fruits” value [1] was “repellent effect on fruit flies”, the “lethality of hatched larvae” value [2] was 80-90% and the “repellent activity, inhibition of egg laying by the flies (% of eggs laid vs no allicin)” value ([3]; 0-12 mM allicin (100 μl), 16 hours continuous exposure, FIG. 1a) was “dose-dependent”. For the same molecule, the “inhibition of capability of the flies to lay eggs on allicin-free plates after exposure” value ([3]; 8 hours on allicin-free plates after 16 hours exposure to 0-12 mM allicin, FIG. 1b) was “significant inhibition effect”, the “crossing of a treated line in the floor by ants” value ([4]; water solution of allicin 1 mg/ml on a line in the floor, even after the solution dried off) was “prevented the crossing of the line by ants” and the “time ants were prevented from reentering the treated locus of the colony” value ([4]; water solution of allicin 1 mg/ml on locus of an ant colony) was “at least 3 days”. For the same molecule, the “damage to leaves after spraying” value [5] was “no damage”.

Reference: patent US20060110472A1, “Use of allicin as insect repellent and insecticide in agricultural crops” (priority 2002, published 2006)
